According to PubChem BioAssay (NCI):
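All cell lines were grown in 96-well plates and treated with compound for 48 hours. TGI denotes the concentration required for complete inhibition of growth.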

How the values were obtained:
Assay in all cases: NCI tumour cell line growth inhibition, 48 h
CCRF-CEM leukemia = system: CCRF-CEM leukemia
HCT-116 colon = system: HCT-116 colon
HOP-62 NSCLC = system: HOP-62 NSCLC
HOP-92 NSCLC = system: HOP-92 NSCLC
HT29 colon = system: HT29 colon
MCF7 breast = system: MCF7 breast
MOLT-4 leukemia = system: MOLT-4 leukemia
NCI/ADR-RES ovarian = system: NCI/ADR-RES ovarian
SNB-75 CNS = system: SNB-75 CNS
T-47D breast = system: T-47D breast
U251 CNS = system: U251 CNS
UACC-62 melanoma = system: UACC-62 melanoma

SMILES | TGI (CCRF-CEM leukemia) [µM] | TGI (HCT-116 colon) [µM] | TGI (HOP-62 NSCLC) [µM] | TGI (HOP-92 NSCLC) [µM] | TGI (HT29 colon) [µM] | TGI (MCF7 breast) [µM] | TGI (MOLT-4 leukemia) [µM] | TGI (NCI/ADR-RES ovarian) [µM] | TGI (SNB-75 CNS) [µM] | TGI (T-47D breast) [µM] | TGI (U251 CNS) [µM] | TGI (UACC-62 melanoma) [µM]
CCOC(=O)/C=C(/C(=O)OCC)n1ccc(=O)n(Cc2cnnn2COCCOC(C)=O)c1=O | 3.57 | 45.8 | > 100 | 6.81 | 32 | 27.7 | 23.4 | 61.9 | > 100 | 29.2 | 37.8 | 32.8
CCCCc1ccc(Nc2nc(OC)c3ncn(C4CC(O)C(CO)O4)c3n2)cc1 (stereo unspecified) | 34.9 | 29.8 | 94.7 | 5.03 | 37.1 | 29.4 | 36.7 | 65.6 | 36.1 | 43.1 | 40 | 33.8
NC1CCC(N(CC(=O)O)CC(=O)O)C(N(CC(=O)O)CC(=O)O)C1 (stereo unspecified) | > 100 | > 100 | > 100 | > 100 | > 100 | > 100 | > 100 | > 100 | > 100 | > 100 | > 100 | > 100
